The results in this text go back to patent US11072584B2, “Carbon monoxide releasing norbornenone compounds” (OTAGO INNOVATION LIMITED, priority 2015, dated 2021).

For orientation: EC50 means the concentration that produces a half-maximal response. As a reminder, the solubility is how much of the substance goes into solution per volume. Lower therefore signals a poorly soluble substance. By melting point is commonly meant the temperature of the solid-liquid transition.

Data set [1] can be described thus: carboxyhaemoglobin in rats exposed to CO gas (earlier unpublished studies). The note with it: 20 ppm CO gas. It is filed as in vivo.
A further data set concerns MDCK cells. The experiment in a line: crystal violet cell adhesion (CVCA) cell toxicity assay. As to conditions: Canis lupus familiaris, MDCK.
The next data set in a line: Solubility in water. The class given is physicochemical. As to conditions: for solubility (in words): water or physiological buffers; for solubility: water, 21° C.
In another data set the test system is MDA-MB-231. Briefly: crystal violet cell viability assay. The class given is cell-based. The note with it: for EC50: Homo sapiens; for cellular toxicity (in words): MDA-MB-231 cells.
The test system of data set [2] is isolated rat aortic rings. The experiment in a line: isolated rat aortic ring vasorelaxation. On the set-up: species or system Lewis rats. The note with it: rings pre-contracted with phenylephrine; 37° C. As to the method: Transverse ring sections of aorta were isolated from male Lewis rats ([…], n=5-6 per group) under halothane anaesthesia and suspended under 2 g tension in an organ bath containing 10 mL of oxygenated (95% O2/5% CO2) Krebs Henseleit (KH) buffer containing 118 mM NaCl, 4.7 mM KCl, 1.2 mM KH2PO4, 1.2 mM MgSO4.7H2O, 22 mM NaHCO3, 11 mM glucose, 0.03 mM K^+ EDTA, and 2.5 mM CaCl2 as previously described.^43 Indomethacin (10 μM) was present in the buffer to exclude endogenous prostaglandins as potential modulators of vascular tone. Relaxation responses to oCOm-19 or oCOm-21 ([…]) were assessed using individual dosing in tissues pre-contracted with phenylephrine (0.1 μM). All results were subsequently expressed as a percentage of the maximal phenylephrine-induced contraction. Following repeat wash steps with Krebs Henseleit buffer, smooth muscle function and viability was confirmed by repeating the contractile response to phenylephrine. Aortic responses to individual EC50 concentrations of either CO donor in phenylephrine vasoconstricted rings were repeated separately, in the presence of the CO-chelator, myoglobin (5 μM) and the selective, irreversible inhibitor of sGC 1H-(1,2,4)oxadiazolo[4,3-a]quinoxalin-1-one, (ODQ, 10 μM), as previously described.^44

A further data set has as its system horse heart myoglobin. Briefly: carboxymyoglobin spectrophotometric assay (CO binding to myoglobin). As to conditions: 25 to 400 μM; 5 to 90 minutes. It is filed as biochemical. The method, then:
CO released from oCOm-19 and oCOm-21 was measured using an established carboxymyoglobin spectrophotometric assay,^39 adapted to a 96 well plate format to enable the simultaneous correction at all absorbance wavelengths arising from any potential interference from the donor compounds.^40 Freshly prepared horse heart myoglobin (66 μM) in a PBS solution (pH 7.4) was reduced with 10% w/v sodium dithionite and added to a 96 well plate. […] Absorption spectra (λ 500-600 nm) were run at ten minute intervals using a Spectramax 96-well spectrophotometer (Molecular Devices, Crawley, UK) at 37° C. CO gas saturated PBS (714 μM), was employed as a positive control.

Setting [3] is: read-out: EC50 (μM), Active Compound.
[4] abbreviates: * (MDA-MB-231), inactive CO depleted analogues, 37° C., read-out: EC50 (μM), Inactive Compound.
Where [5] appears, read: *MDA-MB-231 cells, 1 hr exposure at 37° C., viability after 23 hrs, read-out: EC50 (μM), Active Compound.

Values after ≈ are worked out from the molar mass of the structure shown. Structures can show the parent of a compound that is named as a salt. Where two headings read alike, the source gives them in different places. Some results are limits rather than exact numbers.

Protocol for MDA-MB-231: The loss of cell adhesion for anchorage-dependent cell lines, such as MDCK, represents a surrogate marker of imminent cellular demise which can be measured by the crystal violet cell adhesion (CVCA) assay.^42 MDCK cells were grown in DMEM supplemented with 4% donor calf serum and 1% antibiotic (Gibco Life Technologies, Auckland NZ) and plated at 1×10^6 cells/mL in 24 well plates. CO donor compounds, CO expired compounds (left in solution for over 48 hours) or non CO releasing, debromo derivatives were dissolved in either ultrapure water or for non-water soluble compounds, in DMSO and diluted to 20-100 μM (to a final concentration of 1% DMSO where appropriate). Cells were exposed to CO donor compounds or the respective vehicle control solution for 1 hour at 37° C. prior to washing and incubating for a further 23 hours in fresh media. Cells were fixed in 96% ethanol and stained in 0.05% crystal violet solution in 20% ethanol, prior to washing and solubilising (24 hours) in 2 mL 0.1% acetic acid in 50% ethanol. Sample solutes (100 μL) from each well were transferred into a 96 well plate and absorbance measured at 585 nm. Cell survival was reported as a percentage of the value obtained for cells exposed to vehicle only and used to plot a concentration-response curve for each compound from which an EC50 value was obtained.
Toxicity was reported as EC50 values calculated from percentage cell survival using Origin Pro8 software (OriginLab, MA, USA).

On to `[C-]#[O+]` [CO gas, carbon monoxide], for which the carboxyhaemoglobin level in data set [1] (2 day duration) was determined as 1.1±0.25%; in data set [1] (7 day duration), 2±0.75%.

With `CC12C(=O)C(C)(C(c3ccccc3)=C1c1ccccc1)C1(Br)C(=O)N(Cc3cn(CCOC4OC(CO)C(O)C(O)C4O)nn3)C(=O)C21` [oCOm-49, 3a-Bromo-3a,4,7,7a-tetrahydro-4,7-dimethyl-2-[[1-(2-α-D-mannopyranosyloxy)ethyl]-1H-1,2,3-triazol-4yl]methyl-5,6-diphenyl-4,7-methano-1H-isoindole-1,3,8(2H)-trione], the EC50 in the data set on MDCK cells (setting [3]) was greater than 200 µM. Moreover, in the data set “Solubility in water”, the “solubility (in words)” value is “decreased water solubility” and the concentration in solution (solubility) came to 900 µg/mL (≈ 1.24 mM).

`CCOC(=O)[C@@H](N)CCCCN1C(=O)C2C3(C)C(=O)C(C)(C(c4ccccc4)=C3c3ccccc3)C2(Br)C1=O` (stereo partly drawn) [oCOm-32, Ethyl (2S)-2-amino-6-(3a-bromo-4,7-dimethyl-1,3,8-trioxo-5,6-diphenyl-1,3,3a,4,7,7a-hexahydro-2H-4,7-methanoisoindol-2-yl)hexanoate Trifluoroacetic Acid Salt]: the 50% effective concentration (EC50) in the data set on MDCK cells (setting [3]) was greater than 100 µM. For the same compound, the “solubility (in words)” value in “Solubility in water” is “water soluble”.

On to `Cc1c2c(c(C)c(-c3ccccc3)c1-c1ccccc1)C(=O)N(CCC(=O)ON1C(=O)CCC1=O)C2=O` [BP-17, 2,5-Dioxo-1-pyrrolidinyl 4,7-dimethyl-5,6-diphenyl-1H-isoindole-1,3(2H)-dione-2-propanoate], for which, in the data set on MDA-MB-231 (setting [4]), the EC50 turned out to be 159 µM.

Take `CC12C(=O)C(C)(C(c3ccccc3)=C1c1ccccc1)C1(Br)C(=O)N(c3ccc(O)cc3)C(=O)C21` (centres unmarked) [oCOm-8, 3a-Bromo-3a,4,7,7a-tetrahydro-4,7-dimethyl-2-(4-hydroxyphenyl)-5,6-diphenyl-4,7-methano-1H-isoindole-1,3,8(2H)-trione]: the concentration giving a half-maximal response (EC50) in the data set on MDA-MB-231 (setting [5]) worked out at 23.1 µM.

With `COC(=O)[C@@H](N)CCCN1C(=O)C2C3(C)C(=O)C(C)(C(c4ccccc4)=C3c3ccccc3)C2(Br)C1=O` (stereo partly drawn) [oCOm-40, Methyl (2S) 2-amino-5-(3a-bromo-4,7-dimethyl-1,3,8-trioxo-5,6-diphenyl-1,3,3a,4,7,7a-hexahydro-2H-4,7-methanoisoindol-2-yl)-pentanoate Trifluoroacetic Acid Salt], the EC50 with MDCK cells (setting [3]) is greater than 100 µM. The “solubility (in words)” value in the data set “Solubility in water” is “water soluble”.

For the compound `CC12C(=O)C(C)(C(c3ccccc3)=C1c1ccccc1)C1(Br)C(=O)N(CCC(=O)ON3C(=O)CCC3=O)C(=O)C21` (centres unmarked) [oCOm-17, 2,5-Dioxopyrrolidin-1-yl 3-(3a-bromo-4,7-dimethyl-1,3,8-trioxo-5,6-diphenyl-1,3,3a,4,7,7a-hexahydro-2H-4,7-methanoisoindol-2-yl)propanoate], the concentration for a half-maximal effect (EC50) in the data set on MDA-MB-231 (setting [5]) came out at 216 µM. Besides, in the data set with MDA-MB-231, the “cellular toxicity (in words)” value was “least toxic”. In addition, the “solubility (in words)” value in the data set “Solubility in water” is on record as “lack of solubility in water”.

`CC12C(=O)C(C)(C(c3ccccc3)=C1c1ccccc1)C1(Br)C(=O)N(c3ccccc3)C(=O)C21` (centres unmarked) [oCOm-1, 3a-Bromo-3a,4,7,7a-tetrahydro-4,7-dimethyl-2,5,6-triphenyl-4,7-methano-1H-isoindole-1,3,8(2H)-trione]: the EC50 in the data set on MDA-MB-231 (setting [5]) was 4.6 µM. Further, the “cellular toxicity (in words)” value with MDA-MB-231 is on record as “greatest toxicity”.

As to `COCCOCCOCCOc1ccc(C2=C(c3ccc(OCCOCCOCCOC)cc3)C3(C)C(=O)C2(C)C2C(=O)N(c4ccc(OCCOCCOCCOC)cc4)C(=O)C23Br)cc1` (centres unmarked) [oCOm-15, 3a-Bromo-3a,4,7,7a-tetrahydro-4,7-dimethyl-2,5,6-tri-(4-(2-(2-(2-methoxyethoxy)ethoxy)ethoxy)phenyl)-4,7-methano-1H-isoindole-1,3,8(2H)-trione], in the data set on MDA-MB-231 (setting [5]), the EC50 is 183 µM.

For the compound `Cc1c2c(c(C)c(-c3ccccc3)c1-c1ccccc1)C(=O)N(CCC(=O)NCCN)C2=O.Cl` [BP-19, N-(2-aminoethyl)-3-(4,7-dimethyl-1,3-dioxo-5,6-diphenylisoindolin-2-yl)propanamide Hydrochloride], the “vasorelaxant response (in words)” value in data set [2] is “no vasorelaxant effect”. The EC50 with MDCK cells (read-out: EC50 (μM), Inactive Compound) is greater than 100 µM.

The compound `Cc1c2c(c(C)c(-c3ccccc3)c1-c1ccccc1)C(=O)N(c1ccccc1)C2=O` [BP-1, 4,7-Dimethyl-2,5,6-triphenyl-1H-isoindole-1,3(2H)-dione] came in with a melting point of 260 °C. Besides, the concentration for a half-maximal effect (EC50) with MDA-MB-231 (setting [4]) was greater than 200 µM.

As for `COCCOCCOCCOc1ccc(N2C(=O)c3c(C)c(-c4ccccc4)c(-c4ccccc4)c(C)c3C2=O)cc1` [BP-12, 2-(4-(2-(2-(2-Methoxyethoxy)ethoxy)ethoxy)phenyl)-4,7-dimethyl-5,6-diphenyl-1H-isoindole-1,3(2H)-dione], the melting point lay in the range of 127 to 129 °C. Further, the EC50 in the data set with MDA-MB-231 (setting [4]) worked out at 196 µM.

As for `CC12C(=O)C(C)(C(c3ccccc3)=C1c1ccccc1)C1(Br)C(=O)N(CCC(=O)NC(CO)(CO)CO)C(=O)C21` (centres unmarked) [oCOm-24, N-(2-Hydroxy-1,1-bis(hydroxymethyl)ethyl)-3-(3a-bromo-4,7-dimethyl-1,3,8-trioxo-5,6-diphenyl-3a,4,7,7a-tetrahydro-1H-4,7-methanoisoindol-2(2H)-yl)propanamide], the EC50 in the data set on MDCK cells (setting [3]) is greater than 100 µM. Also, in the data set “Solubility in water”, the “solubility (in words)” value is listed as “decreased solubility” and the solubility stood at 5000 µg/mL (≈ 8.18 mM).

Consider `CCCOC(=O)[C@@H](N)CCCCN1C(=O)C2C3(C)C(=O)C(C)(C(c4ccccc4)=C3c3ccccc3)C2(Br)C1=O` (stereo partly drawn) [oCOm-34, nPropyl (2S)-2-amino-6-(3a-bromo-4,7-dimethyl-1,3,8-trioxo-5,6-diphenyl-1,3,3a,4,7,7a-hexahydro-2H-4,7-methanoisoindol-2-yl)hexanoate Trifluoroacetic Acid Salt], for which the EC50 in the data set with MDCK cells (setting [3]) is greater than 100 µM. Besides, the “solubility (in words)” value in the data set “Solubility in water” is “water soluble”.

With `[C-]#[O+].[C-]#[O+].[C-]#[O+].[C-]#[O+].[C-]#[O+].[C-]#[O+].[Cl][Ru][Cl].[Cl][Ru][Cl]` [CORM2, Tri-carbonyldichlororuthenium (II) dimer, reference compound], the “carbonmonoxymyoglobin formation (in words)” value in the data set on horse heart myoglobin is “characteristic shift in the absorbance maxima of myoglobin”.

Regarding `COCCOCCOCCOc1ccc(-c2c(C)c3c(c(C)c2-c2ccc(OCCOCCOCCOC)cc2)C(=O)N(c2ccc(OCCOCCOCCOC)cc2)C3=O)cc1` [BP-15, 2,5,6-Tri-(4-(2-(2-(2-methoxyethoxy)ethoxy)ethoxy)phenyl)-4,7-dimethyl-1H-isoindole-1,3(2H)-dione], the EC50 in the data set with MDA-MB-231 (setting [4]) was greater than 200 µM.

On to `CC12C(=O)C(C)(C(c3ccccc3)=C1c1ccccc1)C1(Br)C(=O)N(CCCC[C@H](N)C(=O)O)C(=O)C21` (stereo partly drawn) [oCOm-28, (2S)-2-Amino-6-(3a-bromo-4,7-dimethyl-1,3,8-trioxo-5,6-diphenyl-1,3,3a,4,7,7a-hexahydro-2H-4,7-methanoisoindol-2-yl)hexanoic Acid Trifluoroacetic Acid Salt], for which the EC50 in the data set on MDCK cells (setting [3]) is greater than 100 µM. In addition, in “Solubility in water”, the “solubility (in words)” value is recorded as “water soluble”.
